Data on three compounds can be found in article PMC10484922, “Discovery of a selective and biologically active low-molecular weight antagonist of human interleukin-1β” (Nature Communications, 2023).

Each structure is given as a SMILES string. Several values for one entry are separate records, joined by “and”; a condition that tells them apart may be missing. Identical values can stand only once. Like-named read-outs stand apart in the source and are kept apart here.

Assay [1] concerns the target T1, IL-1β (Homo sapiens, UniProt P01584). Description: 19F-reporter displacement assay with (S)-1 as probe. Format: binding. More on the design: Mature hIL-1β was expressed in Escherichia coli; made in house; host or cells: Escherichia coli BL21 (DE3), pET17b. On the procedure:
Protein and reporter concentrations were 10 and 40 μM, respectively. To account for changes in sample homogeneity, samples contained 1-(2,2,2-trifluoroacetyl)piperidine-4-carboxylic acid as an internal reference for scaling signal intensities. Three concentrations of the competitor were typically measured, and the related displacement of the probe was converted into Ki-values according to Dalvit and Vulpetti[17]. […] This process was automated with FRPipe, an in-house developed Python script (https://github.com/Novartis/FRPipe) that allows for streamlined analysis of such experiments. […] For visual inspection, an overview containing relevant ^19F peaks, fitting curves, and proton spectra was plotted.
Supplementary Figure 2. 13C-NMR and 19F-NMR reporter assays to monitor early structure activity relationships of analogues of 1. a, b Early structure activity relationships monitored by protein-observed and c-f 19F-NMR reporter assays, exemplified for compound 8. a 1H-13C-HMQC spectra of hIL-1b (50 µM) were acquired in the presence (red) and absence (blue) of 500 µM compound and rows were extracted at the w1-frequency of the peak corresponding to Leu60 Cd1H3. b The degree of protein binding was estimated from the ratio I/I0, where I and I0 correspond to the signal in the presence and absence of compound, respectively. c For the assessment of the KI-values, the signal intensity of a reporter molecule (S)-1 was monitored in 19F-transverse relaxation experiments run in the absence and presence of increasing amounts of compound. d All intensities were scaled to the intensity of an internal standard (all signals in panel c and d are shifted on the X-axis for clarity). e KI-values were retrieved from theoretical binding curves calculated for each compound concentration8. f One-dimensional 1H-NMR spectra were recorded for each assay mixture to assess the structural integrity and solubility of the compound in the sample.
(1 picture or pasted object on this page, not shown here)

For assay [2], the target named is T2, IL-1α (Homo sapiens, UniProt P01583).
T2 sequence (P01583 113-271): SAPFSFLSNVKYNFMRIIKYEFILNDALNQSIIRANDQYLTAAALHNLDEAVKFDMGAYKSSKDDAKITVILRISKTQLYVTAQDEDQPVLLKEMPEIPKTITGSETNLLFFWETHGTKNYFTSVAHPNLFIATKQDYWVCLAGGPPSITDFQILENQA
Nature of the assay: TR-FRET IL-1α/hIL-1R1 receptor displacement assay. Format: biochemical. More on the design: TR-FRET raw data: scale not given here. As to the method: After 1 h incubation at room temperature, hIL-1R1 (1–332; Alexa 647 labeled; 50 nM final concentration) and anti-His-Europium W1024 (Perkin Elmer; Cat.No. AD0401, 1 nM final concentration) were added to a final volume of 10 μl per well. After 1 h of incubation at room temperature, time-resolved fluorescence was measured at λexc = 320 ± 20 nm, λem = 620 ± 25 nm/665 ± 25 nm using a Pherastar FSX plate reader. All experiments were run in triplicates. The data provided a typical saturation-binding curve, and the IC50 values were calculated by fitting the results to the Hill equation using Prism 7.0 and the in-house software Helios.
In general terms: TR-FRET usually uses a lanthanide donor and a delayed reading to cut background.

In assay [3] the target is T1, IL-1β. Description: protein-observed 1H-13C-HMQC NMR binding (I/Io of Leu60 Cδ1H3). On the set-up: Mature hIL-1β was expressed in Escherichia coli; made in house; host or cells: Escherichia coli BL21 (DE3), pET17b. As to conditions: hIL-1β 50 µM, 500 µM compound. As to the method:
^1H–^13C- and ^1H–^15N-HMQC spectra were recorded on Bruker AVANCE 600 MHz and 800 MHz spectrometers equipped with TXI-cryocooled probeheads. In ligand binding experiments, protein concentrations were typically 50 μM in PBS, pH 7.4. Backbone assignments of hIL-1β in the ligand-bound state and unliganded state were obtained by a combination of a 3D triple resonance experiment HNCACB and a ^15N-edited NOESY spectrum, which were processed using TOPSPIN 3.2 and analyzed using CcpNmr AnalysisAssign 3.1.0[46]. ^15N-CEST experiments were run at weak B1 radiofrequency fields of 25 and 12.5 Hz on a Bruker AVANCE 800 MHz spectrometer with 113 increments and a total sweep width of 28 ppm in the pseudo-3D dimension. Peak intensities were extracted by fitting pseudo-Voigt lineshape models using peakipy (https://github.com/j-brady/peakipy). Fitted peak intensities were subsequently used to generate CEST profiles, and exchange parameters were fitted using ChemEx (https://github.com/gbouvignies/ChemEx).
Supplementary Figure 2. 13C-NMR and 19F-NMR reporter assays to monitor early
13C-HMQC spectra of hIL-1b (50 µM) were acquired in the presence (red) and absence (blue) of 500
µM compound and rows were extracted at the w1-frequency of the peak corresponding to Leu60 […]

Setting [4] is: 19F-reporter Ki, protein 10 μM, reporter (S)-1 40 μM.
The mark [5] stands for this setting: 19F-reporter, individual experiments (Exp1-58), source data.
The mark [6] stands for this setting: IL-1alpha, 0.01 uM, per experiment.
[7] abbreviates: IL-1alpha, 0.1 uM, per experiment.
Setting [8] is: IL-1alpha, 0.2 uM, per experiment.
Setting [9] is: IL-1alpha, 2 uM, per experiment.
Setting [10] is: IL-1alpha, 63 uM, per experiment.
Setting [11] is: IL-1alpha, 200 uM, per experiment.

T1 sequence (P01584 117-269): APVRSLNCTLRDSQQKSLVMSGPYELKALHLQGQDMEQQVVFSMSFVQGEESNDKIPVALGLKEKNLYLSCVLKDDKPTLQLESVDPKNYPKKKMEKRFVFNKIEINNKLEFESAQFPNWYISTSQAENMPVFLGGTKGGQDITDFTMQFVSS

The term Ki denotes the equilibrium dissociation constant of an inhibitor or competing ligand from its target. What is called IC50 is the midpoint of a concentration-inhibition curve. In the case of `Cc1ccc2c(c1)NC(=O)C2(O)c1cc(-c2ccc(C(=O)O)cc2)ccc1O` (stereo not drawn) [Compound 10], the Ki in assay [1] (setting [4]) is 75 ± 40 µM; in assay [1] (setting [5]), 103 µM and 47 µM. Moreover, the IC50 in assay [2] (read-out: TR-FRET IL-1α IC50) is above 200 µM. For the same compound, the “I/Io (ratio of peak intensities of Leu60 Cδ1H3 in 1H-13C-HMQC spectra in presence and absence of ligand)” value in assay [3] was 0.1 (N = 1).
Regarding `O=C(O)c1ccccc1-c1ccc(O)c(C2(O)C(=O)Nc3cc(Cl)ccc32)c1` (stereo not drawn) [Compound 11], the Ki in assay [1] (setting [4]) is 63 ± 41 µM; in assay [1] (setting [5]), 92 µM and 34 µM. Moreover, the half-maximal inhibitory concentration (IC50) in assay [2] (read-out: TR-FRET IL-1α IC50) is above 200 µM. Further, the “I/Io (ratio of peak intensities of Leu60 Cδ1H3 in 1H-13C-HMQC spectra in presence and absence of ligand)” value in assay [3] is given as <0.1 (N = 1).
One may read the inhibition as the change of the read-out against control, counted positive when it falls. As for `Cc1ccc2c(c1)NC(=O)[C@@]2(c1cn[nH]c1)c1cc(-c2ccc(C(=O)O)cc2C(=O)O)ccc1O` [Compound (S)-2], the Ki in assay [1] (protein 10 μM, reporter (S)-1 40 μM, read-out: 19F-reporter Ki) was below 10 µM. Also, the “inhibition of the IL-1R1/IL-1α interaction” value in assay [2] is reported as “did not observe inhibition of IL-1α”. Also, the “TR-FRET calculated % inhibition” value in assay [2] (setting [6]) was 3%; in assay [2] (setting [7]), 2%; in assay [2] (setting [8]) it was 3%; in assay [2] (setting [9]) it was 2% and 11%; in assay [2] (setting [10]), 8% and 2%; in assay [2] (setting [11]) it was 7% and 1%. Also, the TR-FRET raw data in assay [2] (setting [6]) is 96 and 97; in assay [2] (IL-1alpha, 0.02 uM, per experiment), 96; in assay [2] (setting [7]) it was 96 and 98; in assay [2] (setting [8]), 95 and 97; in assay [2] (IL-1alpha, 0.6 uM, per experiment), 99 and 89; in assay [2] (setting [9]), 98 and 90. For the same compound, the TR-FRET raw data in assay [2] (IL-1alpha, 6 uM, per experiment) is 87 and 97; in assay [2] (IL-1alpha, 20 uM, per experiment), 87 and 99; in assay [2] (setting [10]) it was 93 and 98; in assay [2] (setting [11]), 94 and 99. Further, the inhibition at 0.01 µM in assay [2] (IL-1alpha, 0.01 uM, per experiment, read-out: TR-FRET calculated % inhibition) was 4%. The inhibition at 0.02 µM in assay [2] (IL-1alpha, 0.02 uM, per experiment, read-out: TR-FRET calculated % inhibition) is 5%. For the same compound, the inhibition at 0.1 µM in assay [2] (IL-1alpha, 0.1 uM, per experiment, read-out: TR-FRET calculated % inhibition) is 4%. Moreover, the inhibition at 0.2 µM in assay [2] (IL-1alpha, 0.2 uM, per experiment, read-out: TR-FRET calculated % inhibition) was 6%. The IC50 in assay [2] (Il1a, read-out: TR-FRET IC50, individual experiments) was above 200 µM; in assay [2] (read-out: TR-FRET IL-1α IC50), above 200 µM. In addition, in assay [3], the “I/Io (ratio of peak intensities of Leu60 Cδ1H3 in 1H-13C-HMQC spectra in presence and absence of ligand)” value is below 0.1.
